In patent US4486586A, “Cephalosporin derivatives” (Bristol-Myers Company, priority 1983, dated 1984):
Converted amounts (≈) assume the structure as drawn.

Legend:
[1] = test system: Penicillinsensitive S. aureus; assay: MIC, two-fold serial agar dilution in Mueller-Hinton agar, group (G+)-Ia; format: cell-based; settings: Staphylococcus aureus, penicillin-sensitive S. aureus, 5 strains, read-out: Geometric Mean of MIC, (G+)-Ia
Method: (§1) In the primary evaluation of the compounds of this invention, the Minimum Inhibitory Concentrations (MIC's) of the compounds were determined by the two-fold serial agar dilution method in Mueller-Hinton agar against 32 strains of test organisms in six groups.

[2] = test system: Ps. aeruginosa; assay: MIC, two-fold serial agar dilution in Mueller-Hinton agar, group (G-)-III; format: cell-based; settings: Pseudomonas aeruginosa, 7 strains, read-out: Geometric Mean of MIC, (G-)-III
Method: as §1
(G-)III: Ps. aeruginosa (7 strains)

[3] = test system: Cephalothinsensitive E. coli, Kl. pneumoniae and Pr. mirabilis; assay: MIC, two-fold serial agar dilution in Mueller-Hinton agar, group (G-)-Ia; format: cell-based; settings: cephalothin-sensitive E. coli, 5 strains, read-out: Geometric Mean of MIC, (G-)-Ia
Method: as §1
(G-)Ia: Cephalothinsensitive E. coli (2 strains), Kl. pneumoniae (1
strain) and Pr. mirabilis (2 strains)

[4] = test system: Cephalothinresistant E. coli and Kl. pneumoniae; assay: MIC, two-fold serial agar dilution in Mueller-Hinton agar, group (G-)-Ib; format: cell-based, E. coli (3 strains) and Kl. pneumoniae (3 strains); settings: read-out: Geometric Mean of MIC, (G-)-Ib
Method: as §1
(G-)Ib: Cephalothinresistant E. coli (3 strains) and Kl. pneumoniae (3

[5] = test system: Penicillinresistant S. aureus; assay: MIC, two-fold serial agar dilution in Mueller-Hinton agar, group (G+)-Ib; format: cell-based; settings: Staphylococcus aureus, penicillin-resistant S. aureus, 5 strains, read-out: Geometric Mean of MIC, (G+)-Ib
Method: as §1
(G+)Ib: Penicillinresistant S. aureus (5

[6] = test system: M. morganii, Ent. cloacae and Ser. marcescens; assay: MIC, two-fold serial agar dilution in Mueller-Hinton agar, group (G-)-II; format: cell-based; settings: 5 strains, read-out: Geometric Mean of MIC, (G-)-II
Method: as §1
(G-)II: M. morganii (1 strain), Ent. cloacae (2 strains) andSer.

Question: `Nc1cc[n+](C/C=C/C2=C(C(=O)[O-])N3C(=O)C(NC(=O)/C(=N\OC4(C(=O)O)CCC4)c4csc(N)n4)C3SC2)cc1` (stereo not drawn) [Compound I-5I, 7-[(Z)-2-(2-Aminothiazol-4-yl)-2-(1-carboxycyclobut-1-oxyimino)acetamido]-3-[(E)-3-(4-aminopyridino)-1-propen-1-yl]-3-cephem-4-carboxylate] was tested. Which MIC [1] did it give?
Answer: 1.6 mg/L (≈ 2.67 µM)

Question: And the MIC [2]?
Answer: 3.5 mg/L (≈ 5.84 µM)

Question: And the MIC [3]?
Answer: 0.019 mg/L (≈ 0.0317 µM)

Question: What about the MIC [4] of the same compound?
Answer: 0.2 mg/L (≈ 0.334 µM)

Question: What about the MIC [5] of the same compound?
Answer: 4.7 mg/L (≈ 7.84 µM)

Question: What about the MIC [6] of the same compound?
Answer: 0.22 mg/L (≈ 0.367 µM)
